{"source": "patent US20160220569A1", "about": "“CDK4/6 Inhibitor Dosage Formulations For The Protection Of Hematopoietic Stem And Progenitor Cells During Chemotherapy” (G1 Therapeutics, Inc., priority 2015, published 2016)", "experiment": "Single escalating dose IV infusion pharmacokinetics in healthy volunteers (noncompartmental)", "format": "in vivo, human", "conditions": "both sexes, human, plasma, iv; for concentration at 24.5 h: read-out: concentration at 24.5 hours after the start of infusion; for concentration at 0.25 h / concentration at 0.5 h / concentration at 0.75 h / concentration at 1 h / concentration at 2.5 h / concentration at 3.5 h / concentration at 8.5 h / concentration at 12.5 h / concentration at 6.5 h: r7-9=Subjects 1-3,r11=Mean,r13=Min,r14=Median,r15=Max,r17=Geometric Mean; for concentration at 0.5 h: Time 0.50 h", "method": "Forty-five subjects have enrolled in the study.\nAnalysis of plasma concentration versus time data for calculation of standard pharmacokinetic (PK) parameters following intravenous infusion administration was conducted using Phoenix WinNonlin version 6.3 using a nominal infusion duration and scheduled blood sampling times. Random subject numbers were assigned by the bioanalytical laboratory to retain the blind.\n(§1) Analysis of plasma concentration versus time data for calculation of standard pharmacokinetic (PK) parameters following intravenous infusion administration was conducted using Phoenix WinNonlin version 6.3 using a nominal infusion duration and scheduled blood sampling times.\nas §1", "key": {"[1]": {"conditions": "6 mg/m^2, Compound 1 Concentration, Cohort 1, 6 mg/m^2 IV"}, "[2]": {"conditions": "12 mg/m^2, Compound 1 Concentration, Cohort 2, 12 mg/m^2 IV"}, "[3]": {"conditions": "24 mg/m2, Cohort 3, 24 mg/m^2 IV, r6-8=Subjects 1-3,r10=Mean,r12=Min,r13=Median,r14=Max,r16=Geometric Mean"}}, "note": "Like-named read-outs stand apart in the source and are kept apart here."}
{"smiles": "CN1CCN(c2ccc(Nc3ncc4cc5n(c4n3)C3(CCCCC3)CNC5=O)nc2)CC1", "note": "[Compound 1, 2′-((5-(4-methylpiperazin-1-yl)pyridin-2-yl)amino)-7′,8′-dihydro-6′H-spiro[cyclohexane-1,9′-pyrazino[1′,2′:1,5]pyrrolo[2,3-d]pyrimidin]-6′-one]", "values": [{"measurement": "concentration at 24.5 h", "setting": "6 mg/m^2, Cohort 1, 6 mg/m^2 IV, 1 of 3 subjects measurable", "value": 0.595, "unit": "ng/mL"}, {"measurement": "concentration at 0.25 h", "setting": "[1]", "value": 49, "unit": "ng/mL"}, {"measurement": "concentration at 0.5 h", "setting": "[1]", "value": 46.9, "unit": "ng/mL"}, {"measurement": "concentration at 0.75 h", "setting": "[1]", "value": 16.3, "unit": "ng/mL"}, {"measurement": "concentration at 1 h", "setting": "6 mg/m^2, Compound 1 Concentration, Cohort 1, 6 mg/m^2 IV, Time 1.00 h", "value": 11.8, "unit": "ng/mL"}, {"measurement": "concentration at 2.5 h", "setting": "6 mg/m^2, Compound 1 Concentration, Cohort 1, 6 mg/m^2 IV, Time 2.50 h", "value": 4.69, "unit": "ng/mL"}, {"measurement": "concentration at 3.5 h", "setting": "6 mg/m^2, Compound 1 Concentration, Cohort 1, 6 mg/m^2 IV, Time 3.50 h", "value": 3.75, "unit": "ng/mL"}, {"measurement": "concentration at 8.5 h", "setting": "6 mg/m^2, Compound 1 Concentration, Cohort 1, 6 mg/m^2 IV, Time 8.50 h", "value": 1.39, "unit": "ng/mL"}, {"measurement": "concentration at 12.5 h", "setting": "6 mg/m^2, Compound 1 Concentration, Cohort 1, 6 mg/m^2 IV, Time 12.50 h", "value": 0.752, "unit": "ng/mL"}, {"measurement": "AUC(0-inf)", "setting": "12 mg/m2, Cohort 2, 12 mg/m^2 IV, mean, read-out: AUCinf averaged", "value": 148, "unit": "ng·h/mL"}, {"measurement": "Cmax", "setting": "12 mg/m2, Cohort 2, 12 mg/m^2 IV, mean, read-out: Cmax averaged", "value": 122, "unit": "ng/mL"}, {"measurement": "half-life", "setting": "12 mg/m2, Cohort 2, 12 mg/m^2 IV, mean, read-out: Half-lives averaged (converted)", "value": 8.22, "unit": "h"}, {"measurement": "Tmax", "setting": "12 mg/m2, Cohort 2, 12 mg/m^2 IV, median, read-out: median Tmax", "value": 0.5, "unit": "h"}, {"measurement": "MRT inf", "setting": "12 mg/m2, Cohort 2, 12 mg/m^2 IV, r6-8=Subjects 1-3,r10=Mean,r12=Min,r13=Median,r14=Max,r16=Geometric Mean", "value": 5.56, "unit": "h"}, {"measurement": "AUC(0-inf)", "setting": "12 mg/m2, Cohort 2, 12 mg/m^2 IV, r6-8=Subjects 1-3,r10=Mean,r12=Min,r13=Median,r14=Max,r16=Geometric Mean, read-out: AUCinf", "value": 148, "unit": "ng·h/mL"}, {"measurement": "Cmax", "setting": "12 mg/m2, Cohort 2, 12 mg/m^2 IV, r6-8=Subjects 1-3,r10=Mean,r12=Min,r13=Median,r14=Max,r16=Geometric Mean, read-out: Cmax", "value": 122, "unit": "ng/mL"}, {"measurement": "Tmax", "setting": "12 mg/m2, Cohort 2, 12 mg/m^2 IV, r6-8=Subjects 1-3,r10=Mean,r12=Min,r13=Median,r14=Max,r16=Geometric Mean, read-out: Tmax", "value": 0.417, "unit": "h"}, {"measurement": "half-life", "setting": "12 mg/m2, Cohort 2, 12 mg/m^2 IV, r6-8=Subjects 1-3,r10=Mean,r12=Min,r13=Median,r14=Max,r16=Geometric Mean, read-out: t½ (converted)", "value": 8.22, "unit": "h"}, {"measurement": "half-life", "setting": "12 mg/m2, Cohort 2, 12 mg/m^2 IV, range over subjects, read-out: Half-lives range", "value": "7.56 to 8.89", "unit": "h"}, {"measurement": "concentration at 24.5 h", "setting": "12 mg/m^2, Cohort 2, 12 mg/m^2 IV, range over 3 subjects", "value": "0.506 to 1.06", "unit": "ng/mL"}, {"measurement": "concentration at 0.25 h", "setting": "[2]", "value": 115, "unit": "ng/mL"}, {"measurement": "concentration at 0.5 h", "setting": "[2]", "value": 102, "unit": "ng/mL"}, {"measurement": "concentration at 0.75 h", "setting": "[2]", "value": 33.2, "unit": "ng/mL"}, {"measurement": "concentration at 1 h", "setting": "12 mg/m^2, Compound 1 Concentration, Cohort 2, 12 mg/m^2 IV, Time 1.0 h", "value": 23.9, "unit": "ng/mL"}, {"measurement": "concentration at 2.5 h", "setting": "12 mg/m^2, Compound 1 Concentration, Cohort 2, 12 mg/m^2 IV, Time 2.5 h", "value": 8.75, "unit": "ng/mL"}, {"measurement": "concentration at 3.5 h", "setting": "12 mg/m^2, Compound 1 Concentration, Cohort 2, 12 mg/m^2 IV, Time 3.5 h", "value": 7.89, "unit": "ng/mL"}, {"measurement": "concentration at 6.5 h", "setting": "[2]", "value": 3.99, "unit": "ng/mL"}, {"measurement": "concentration at 8.5 h", "setting": "12 mg/m^2, Compound 1 Concentration, Cohort 2, 12 mg/m^2 IV, Time 8.5 h", "value": 2.79, "unit": "ng/mL"}, {"measurement": "concentration at 12.5 h", "setting": "12 mg/m^2, Compound 1 Concentration, Cohort 2, 12 mg/m^2 IV, Time 12.5 h", "value": 1.65, "unit": "ng/mL"}, {"measurement": "AUC(0-inf)", "setting": "24 mg/m2, Cohort 3, 24 mg/m^2 IV, mean, read-out: AUCinf averaged", "value": 287, "unit": "ng·h/mL"}, {"measurement": "Cmax", "setting": "24 mg/m2, Cohort 3, 24 mg/m^2 IV, mean, read-out: Cmax averaged", "value": 252, "unit": "ng/mL"}, {"measurement": "half-life", "setting": "24 mg/m2, Cohort 3, 24 mg/m^2 IV, mean, read-out: Half-lives averaged (converted)", "value": 9.88, "unit": "h"}, {"measurement": "Tmax", "setting": "24 mg/m2, Cohort 3, 24 mg/m^2 IV, median, read-out: median Tmax", "value": 0.5, "unit": "h"}, {"measurement": "AUC(0-t)", "setting": "[3]", "value": 261, "unit": "ng·h/mL"}, {"measurement": "MRT inf", "setting": "[3]", "value": 6.65, "unit": "h"}, {"measurement": "AUC(0-inf)", "setting": "24 mg/m2, Cohort 3, 24 mg/m^2 IV, r6-8=Subjects 1-3,r10=Mean,r12=Min,r13=Median,r14=Max,r16=Geometric Mean, read-out: AUCinf", "value": 287, "unit": "ng·h/mL"}, {"measurement": "Cmax", "setting": "24 mg/m2, Cohort 3, 24 mg/m^2 IV, r6-8=Subjects 1-3,r10=Mean,r12=Min,r13=Median,r14=Max,r16=Geometric Mean, read-out: Cmax", "value": 252, "unit": "ng/mL"}, {"measurement": "Tmax", "setting": "24 mg/m2, Cohort 3, 24 mg/m^2 IV, r6-8=Subjects 1-3,r10=Mean,r12=Min,r13=Median,r14=Max,r16=Geometric Mean, read-out: Tmax", "value": 0.5, "unit": "h"}, {"measurement": "half-life", "setting": "24 mg/m2, Cohort 3, 24 mg/m^2 IV, r6-8=Subjects 1-3,r10=Mean,r12=Min,r13=Median,r14=Max,r16=Geometric Mean, read-out: t½ (converted)", "value": 9.88, "unit": "h"}, {"measurement": "half-life", "setting": "24 mg/m2, Cohort 3, 24 mg/m^2 IV, range over subjects, read-out: Half-lives range", "value": "7.85 to 13.1", "unit": "h"}, {"measurement": "concentration at 24.5 h", "setting": "24 mg/m^2, Cohort 3, 24 mg/m^2 IV, range over 3 subjects", "value": "0.87 to 2.91", "unit": "ng/mL"}, {"measurement": "concentration at 1 h", "setting": "24 mg/m^2, Compound 1 Concentration, Cohort 3, 24 mg/m^2 IV, Time 1.0 h", "value": 39.2, "unit": "ng/mL"}, {"measurement": "concentration at 2.5 h", "setting": "24 mg/m^2, Compound 1 Concentration, Cohort 3, 24 mg/m^2 IV, Time 2.5 h", "value": 15, "unit": "ng/mL"}, {"measurement": "concentration at 3.5 h", "setting": "24 mg/m^2, Compound 1 Concentration, Cohort 3, 24 mg/m^2 IV, Time 3.5 h", "value": 11.6, "unit": "ng/mL"}, {"measurement": "concentration at 6.5 h", "setting": "24 mg/m^2, Compound 1 Concentration, Cohort 3, 24 mg/m^2 IV", "value": 6.7, "unit": "ng/mL"}, {"measurement": "concentration at 8.5 h", "setting": "24 mg/m^2, Compound 1 Concentration, Cohort 3, 24 mg/m^2 IV, Time 8.5 h", "value": 4.91, "unit": "ng/mL"}, {"measurement": "AUC(0-inf)", "setting": "48 mg/m2, Cohort 4, 48 mg/m^2 IV, mean, read-out: AUCinf averaged", "value": 499, "unit": "ng·h/mL"}]}
